Source: patent US6555571B2, “3-methyl -chromane or thiochromane derivatives” (Chugai Seiyaku Kabushiki Kaisha, priority 1999, dated 2003)

These compounds were tested on increase in uterus weight by stimulus with estradiol (assay: Anti-estrogenic activity via oral administration (inhibition of estradiol-stimulated increase in uterus weight in ovariectomized mice)). Settings: ovariectomized ICR mice, 17β-estradiol-benzoate 0.1 μg/day s.c. for 3 days, test compound 10 mg/kg p.o., once a day, uterus weighed 24 hours after last administration.
Format: in vivo
Description: Oral anti-estrogenic activity in vivo of the test compound was determined according to the method described hereinafter. […] In this experiment, the test compounds and the control compound were suspended in 5% arabic gum solution and orally administered for 3 days, once a day. After 24 hours from the last administration, the test animal was sacrificed and uterus was removed and weighed.

Compared with C[C@]1(c2ccc(O)cc2)COc2cc(O)ccc2[C@H]1CCCCCCCCCC(CCCCCCC(F)(F)C(F)(F)F)C(=O)O (stereo partly drawn) [Example 3, (3′RS,4′RS)-11-[7-hydroxy-3-(4-hydroxyphenyl)-3-methylchroman-4-yl]-2-(7,7,8,8,8-pentafluorooctyl)undecanoic acid], C[C@]1(c2ccc(O)cc2)COc2cc(O)ccc2[C@H]1CCCCCCCCC(CCCCCCC(F)(F)C(F)(F)F)C(=O)O (stereo partly drawn) [Example 4, (3′RS,4′RS)-10-[7-hydroxy-3-(4-hydroxyphenyl)-3-methylchroman-4-yl]-2-(7,7,8,8,8-pentafluorooctyl)decanoic acid] is lower in “Inhibition (%) of the increase in uterus weight by estradiol” value (from here on “Inhibition (%) of the increase”): 85.1% for the first, 71.4% for the second.

Going from C[C@]1(c2ccc(O)cc2)CSc2cc(O)ccc2[C@H]1CCCCCCCCCC(CCCCCCC(F)(F)C(F)(F)F)C(=O)O (stereo partly drawn) [Example 2, (3′RS,4′RS)-11-[7-hydroxy-3-(4-hydroxyphenyl)-3-methylthiochroman-4-yl]-2-(7,7,8,8,8-pentafluorooctyl)undecanoic acid] to C[C@]1(c2ccc(O)cc2)CSc2cc(O)ccc2[C@H]1CCCCCCCCC(CCCCCCC(F)(F)C(F)(F)F)C(=O)O (stereo partly drawn) [Example 1, (3′RS,4′RS)-10-[7-hydroxy-3-(4-hydroxyphenyl)-3-methylthiochroman-4-yl]-2-(7,7,8,8,8-pentafluorooctyl)decanoic acid], the “Inhibition (%) of the increase” value rises from 62.0% to 78.9%.

C[C@]1(c2ccc(O)cc2)CCc2cc(O)ccc2C1CCCCCCCCC[S+]([O-])CCCC(F)(F)C(F)(F)F (some centres unmarked) [ZM189154, reference compound] was tested, and the “Inhibition (%) of the increase” value was 41.7%.
